From patent US6548553B2, “Styryl sulfone anticancer agents” (Temple University-of the Commonwealth System of Higher …, priority 1997, dated 2003)

Experiments:
Format in all cases: cell-based
ERK-2 [1] = experiment: Western blot analysis of treated cell lysates with ERK-2 antibody; conditions: 2.5 and 5.0 μM, 48 hours; NIH3T3, LnCaP or MCF-7
Procedure: Cell lysates of FRI-20-treated cells were prepared for Western Blot analysis as follows. NIH3T3, LnCaP or MCF-7 cells were seeded at a density of 2×10^5 cells/per well in a six-well plate and allowed to grow for 24 hours. Fresh medium was added to each well 2 hours before treatment with FRI-20. The compound was dissolved in DMSO to make a 2 mM stock solution and added to the medium (2 ml) to obtain a final concentration of 2.5 and 5.0 μM. After 48 hours at 37° C., the cells were washed twice with 10 ml of ice cold phosphate-buffered saline and harvested in 400 μl of lysis buffer containing 25 mM HEPES (pH 7.6), 0.1% Triton X-100, 300 mM NaCl, 1.5 mM MgCl2, 20 mM β-glycerophosphate, 100 μM Na3VO4, 0.2 mM EDTA, 0.5 mM dithiothreitol, 2 μg/ml aprotinin, 2 μg/ml leupeptin, 100 μM […] and 1 mM benzamidine. The cell lysates were kept on ice for 30 minutes and centrifuged for 10 minutes in a microcentrifuge (16000 X g). The cell lysates were separated from the debris and normalized for protein content.
Western Blot analysis was carried out on the drug- and mock-treated cell lysates with ERK-2 antibody. Equal amounts of total protein (100 μg) were loaded in each lane of a SDS-PAGE gel (10-12%) and transferred to Immobilon-P (Millipore, USA). […] The antibody was detected using the ECL Western blotting analysis kit (Amersham) following the manufacturer's instructions.

LnCaP cells = experiment: Comparison with cisplatin, Trypan blue viability after 72 hours
Procedure: (§1) The killing effect of FR-20 on androgen-sensitive (LnCaP) and androgen insensitive (DU145) prostate tumor cells was compared to the effect of cisplatin (cis-diamminedichloroplatinum II), a widely used anti-prostate cancer agent. The cells were grown as in Example 26. FRI-20 or cisplatin was dissolved in DMSO and added to the cells at various concentrations. Viability was determined after 72 hours by the Trypan blue exclusion method. The concentration of FRI-20 required to completely kill LnCaP and DU145 cells was 2.5 μM and 5.0 μM, respectively. Under identical conditions, complete killing of LnCaP and DU145 cells by cisplatin required 25 μM and 15 μM concentrations, respectively.

DU145 cells = experiment: as above; conditions: DU145, 72 hours, Trypan blue exclusion
Procedure: as §1

ERK-2 [2] = target: T1, ERK-2 (Homo sapiens, UniProt P28482); experiment: Immune complex ERK-2 kinase assay with MBP substrate, treated cells; parameters: dose or concentration left out as unconfirmed; conditions: prostate tumor cells
T1 construct: ERK-2 in 100 mg of cell lysate was immunoprecipitated; endogenous in cells; host or cells: LnCaP, MCF-7 (human) and NIH3T3 (mouse) cells
T1 sequence (P28482 2-360): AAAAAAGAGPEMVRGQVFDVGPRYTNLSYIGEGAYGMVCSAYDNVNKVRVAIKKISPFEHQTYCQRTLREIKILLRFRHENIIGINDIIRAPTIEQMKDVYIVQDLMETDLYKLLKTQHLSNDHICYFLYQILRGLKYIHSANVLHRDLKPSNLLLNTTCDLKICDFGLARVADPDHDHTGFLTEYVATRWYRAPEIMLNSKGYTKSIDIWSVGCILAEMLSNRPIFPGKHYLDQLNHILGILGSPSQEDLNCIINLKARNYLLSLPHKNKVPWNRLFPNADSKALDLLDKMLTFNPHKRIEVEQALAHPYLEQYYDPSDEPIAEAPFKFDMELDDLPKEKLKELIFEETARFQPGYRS
Procedure: To examine the effects of FRI-20 on the MAPK pathway, NIH3T3, LnCaP and MCF-7 cells were incubated with FRI-20 at a concentration […] for 48 hours. Following incubation of cells in the presence and absence of FRI-20, the cells were lysed using ERK lysis buffer containing 20 mM HEPES (pH 7.4), 50 mM β-glycerophosphate, 0.5% Triton X-100, 2 mM MgCl2, 1 mM EGTA, 1 mM dithiothreitol, 2 μg/ml leupeptin, 2 μg/ml aprotinin, 100 μM phenylmethylsulfonyl fluoride, and 1 mM benzamidine. ERK-2 in […] of cell lysate was immunoprecipitated by incubating lysate protein with […] of ERK-2 polyclonal antibody (antibody sc-154 to ERK2 is from Santa Cruz Biotechnology, Inc.) for one hour followed by an additional incubation of 20 μl of protein A-Sepharose (Pharmacia) for one hour. The immune complex-bound protein A-Sepharose beads were washed twice with lysis buffer and twice with
ERK/MAPK buffer containing 20 mM HEPES (pH 7.4), 50 mM β-glycerophosphate, 10 mM MgCl2, 1 mM EGTA, 1 mM dithiothreitol, and […] Na3VO4.
The immunoprecipitates were then tested for MAP kinase activity by an in vitro assay which utilizes myelin basic proteins (MBP) as a substrate for ERK-2 in the presence of [γ-^32P] ATP. Accordingly, the beads were resuspended in 40 μl of MAPK buffer containing 100 μM [γ-^32P] […]

NIH3T3 or HFL = experiment: Cell cycle analysis, normal cell lines
[3] = system: LnCaP, BT-20 and MCF-7 cells; experiment: Trypan blue exclusion viability/proliferation assay (dose and time course); conditions: 2.5 mM (FIG. 1A) and 5.0 mM (FIG. 1B), 48 hours of treatment
[4] = Trypan blue exclusion viability assay, normal fibroblast cell lines; conditions: mouse (NIH3T3), human (HFL), NIH3T3 and HFL cells (normal fibroblast cell lines), 2.5 and 5.0 μM, read-out: percent viability
Procedure: The effect of FR-20 on the growth of normal and tumor cells of breast and prostate was examine utilizing nine cell lines: NIH/3T3 and HFL (normal fibroblast cell lines); MCF-7 and 361 ([…] breast tumor cell lines); BT-20, 435 and SKBR-3 ([…] breast tumor cell lines); LnCaP (androgen sensitive prostate tumor cell line); PC-3 and DU-145 (androgen insensitive prostate tumor cell line).
The cells were grown as in Example 22, A. FR-20 was dissolved in DMSO and added to the cells at 2.5 μM and 5.0 μM concentration. To control cells, DMSO was added equivalent to the volume of solvent (DMSO) present at the highest concentration of the compound. The activity of the compound was evaluated after 48 hours by Trypan blue exclusion. […] Nearly 50% of SKBR-3 and BT-20 cells were dead at 2.5 μM and 75% at 5.0 μM concentration of the compound. […] FRI-20 had profound effect on the viability of androgen-dependent LnCaP prostate tumor cell line when compared to androgen-independent DU-145 and PC-3 prostate cell lines. At […] FRI-20, 80% of LnCaP, 40% of PC-3 and 20% of DU-145 cells were killed. At […] FRI-20, 72% of LnCaP, 47% of PC-3 and 40% of DU-145 were killed (FIG. 3B).

O=S(=O)(/C=C/c1ccc(F)cc1)Cc1ccc(Cl)cc1 [Example 11, E-4-fluorostyryl 4-chlorobenzyl Sulfone]
amount of ERK-2 protein in drug- and mock-treated lysates (ERK-2 [1]): the same amount of protein in both lysates | concentration required to completely kill cells (LnCaP cells; LnCaP, 72 hours, Trypan blue exclusion): 2.5 µM | activity relative to cisplatin in killing prostate tumor cells (LnCaP cells; both LnCaP and DU145, 72 hours): at least tenfold more active than cisplatin | concentration required to completely kill cells (DU145 cells): 5.0 µM | reduction of phosphorylation status of MBP compared to mock-treated cells (ERK-2 [2]): more than 80% | effect on cell cycle progression (NIH3T3 or HFL): failed to produce a similar effect on cell cycle progression | inhibition of growth and induction of death of LnCaP, BT-20 and MCF-7 cells [3]: substantially inhibit the growth and induce the death | viability at 48 h [4]: 85 to 90%
